# Source: ChEMBL document CHEMBL1156263, “Single agents with designed combination chemotherapy potential: synthesis and evaluation of substituted pyrimido[4,5-b]indoles as receptor tyrosine kinase and thymidylate synthase inhibitors and as antitumor agents” (J Med Chem, 2010)
# Active and inactive are the calls of the source. No cut-off for these calls is given here.
# Experiments:
# [1] = target: T1, Mitogen-activated protein kinase; ERK1/ERK2 (Homo sapiens) (UniProt P27361+P28482); experiment: Reduction of ERK1/2 activation in human MDA-MB-435 cells at 20 uM after 4 hrs by Western blot analysis; type: cell-based
# T1 sequence (P27361 whole entry, looked up): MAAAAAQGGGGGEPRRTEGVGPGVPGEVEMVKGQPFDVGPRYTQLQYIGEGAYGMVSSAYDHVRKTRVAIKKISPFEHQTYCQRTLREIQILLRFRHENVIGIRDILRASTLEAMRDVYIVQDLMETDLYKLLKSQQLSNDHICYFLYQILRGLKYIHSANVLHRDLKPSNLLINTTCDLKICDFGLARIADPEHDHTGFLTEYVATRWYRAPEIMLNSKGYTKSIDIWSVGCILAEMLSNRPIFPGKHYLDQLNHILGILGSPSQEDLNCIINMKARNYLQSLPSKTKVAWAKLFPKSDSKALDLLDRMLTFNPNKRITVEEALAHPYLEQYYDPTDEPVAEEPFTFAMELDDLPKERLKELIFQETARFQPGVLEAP
# T1 sequence (P28482 whole entry, looked up): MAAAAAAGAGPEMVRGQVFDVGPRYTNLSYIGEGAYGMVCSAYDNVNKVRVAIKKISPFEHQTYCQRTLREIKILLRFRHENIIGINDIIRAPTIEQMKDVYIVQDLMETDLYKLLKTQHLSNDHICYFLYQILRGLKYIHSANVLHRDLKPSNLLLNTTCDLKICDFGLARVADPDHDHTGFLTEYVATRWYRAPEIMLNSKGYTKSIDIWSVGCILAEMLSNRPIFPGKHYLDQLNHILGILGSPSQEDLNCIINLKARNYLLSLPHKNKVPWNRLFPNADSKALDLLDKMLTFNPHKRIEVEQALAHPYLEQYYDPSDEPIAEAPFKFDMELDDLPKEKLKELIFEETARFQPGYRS
# [2] = target: Vascular endothelial growth factor receptor 1 (Homo sapiens, UniProt P17948); experiment: Inhibition of VEGFR1 in human A498 cells by phosphotyrosine cell-based ELISA
# Chain of Vascular endothelial growth factor receptor 1 (P17948 whole entry): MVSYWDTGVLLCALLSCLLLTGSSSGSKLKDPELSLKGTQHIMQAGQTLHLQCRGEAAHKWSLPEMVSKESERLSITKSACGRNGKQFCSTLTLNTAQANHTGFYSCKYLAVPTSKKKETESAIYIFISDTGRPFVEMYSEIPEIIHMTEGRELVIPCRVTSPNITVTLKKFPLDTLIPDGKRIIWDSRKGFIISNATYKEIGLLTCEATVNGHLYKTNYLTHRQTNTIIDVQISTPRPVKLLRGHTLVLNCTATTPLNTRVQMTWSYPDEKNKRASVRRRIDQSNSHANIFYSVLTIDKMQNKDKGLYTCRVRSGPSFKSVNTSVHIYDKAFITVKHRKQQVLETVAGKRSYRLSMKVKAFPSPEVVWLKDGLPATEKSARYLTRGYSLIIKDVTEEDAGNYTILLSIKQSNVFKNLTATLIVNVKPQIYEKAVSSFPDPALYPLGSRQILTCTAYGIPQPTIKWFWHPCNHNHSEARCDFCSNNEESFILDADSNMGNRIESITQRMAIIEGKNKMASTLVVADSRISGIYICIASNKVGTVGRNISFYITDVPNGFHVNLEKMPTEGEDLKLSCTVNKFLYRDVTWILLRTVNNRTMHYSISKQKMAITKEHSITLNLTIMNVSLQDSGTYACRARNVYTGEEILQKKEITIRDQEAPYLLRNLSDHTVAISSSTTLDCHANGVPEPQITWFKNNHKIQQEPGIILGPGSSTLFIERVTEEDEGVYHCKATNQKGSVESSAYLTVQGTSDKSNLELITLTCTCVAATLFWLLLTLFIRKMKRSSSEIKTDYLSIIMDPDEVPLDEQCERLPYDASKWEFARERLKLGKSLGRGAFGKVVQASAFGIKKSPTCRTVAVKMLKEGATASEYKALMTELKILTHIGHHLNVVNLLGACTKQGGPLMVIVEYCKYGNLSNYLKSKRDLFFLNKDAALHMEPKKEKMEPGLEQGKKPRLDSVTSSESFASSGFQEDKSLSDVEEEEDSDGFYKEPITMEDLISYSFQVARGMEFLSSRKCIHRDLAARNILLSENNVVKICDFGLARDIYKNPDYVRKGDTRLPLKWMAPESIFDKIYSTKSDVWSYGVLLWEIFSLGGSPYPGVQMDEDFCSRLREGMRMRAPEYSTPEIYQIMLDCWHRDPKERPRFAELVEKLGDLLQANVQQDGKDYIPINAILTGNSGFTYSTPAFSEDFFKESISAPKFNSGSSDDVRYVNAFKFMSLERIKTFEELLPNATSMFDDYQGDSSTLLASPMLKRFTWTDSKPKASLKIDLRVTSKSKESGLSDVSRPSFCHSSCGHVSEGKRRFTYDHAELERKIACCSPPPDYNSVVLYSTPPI
# [3] = target: T2, Receptor-type tyrosine-protein kinase FLT3 (Homo sapiens, UniProt P36888); experiment: Inhibition of Flt3 activity in human […] cells by phosphotyrosine cell-based ELISA
# T2 sequence (P36888 whole entry): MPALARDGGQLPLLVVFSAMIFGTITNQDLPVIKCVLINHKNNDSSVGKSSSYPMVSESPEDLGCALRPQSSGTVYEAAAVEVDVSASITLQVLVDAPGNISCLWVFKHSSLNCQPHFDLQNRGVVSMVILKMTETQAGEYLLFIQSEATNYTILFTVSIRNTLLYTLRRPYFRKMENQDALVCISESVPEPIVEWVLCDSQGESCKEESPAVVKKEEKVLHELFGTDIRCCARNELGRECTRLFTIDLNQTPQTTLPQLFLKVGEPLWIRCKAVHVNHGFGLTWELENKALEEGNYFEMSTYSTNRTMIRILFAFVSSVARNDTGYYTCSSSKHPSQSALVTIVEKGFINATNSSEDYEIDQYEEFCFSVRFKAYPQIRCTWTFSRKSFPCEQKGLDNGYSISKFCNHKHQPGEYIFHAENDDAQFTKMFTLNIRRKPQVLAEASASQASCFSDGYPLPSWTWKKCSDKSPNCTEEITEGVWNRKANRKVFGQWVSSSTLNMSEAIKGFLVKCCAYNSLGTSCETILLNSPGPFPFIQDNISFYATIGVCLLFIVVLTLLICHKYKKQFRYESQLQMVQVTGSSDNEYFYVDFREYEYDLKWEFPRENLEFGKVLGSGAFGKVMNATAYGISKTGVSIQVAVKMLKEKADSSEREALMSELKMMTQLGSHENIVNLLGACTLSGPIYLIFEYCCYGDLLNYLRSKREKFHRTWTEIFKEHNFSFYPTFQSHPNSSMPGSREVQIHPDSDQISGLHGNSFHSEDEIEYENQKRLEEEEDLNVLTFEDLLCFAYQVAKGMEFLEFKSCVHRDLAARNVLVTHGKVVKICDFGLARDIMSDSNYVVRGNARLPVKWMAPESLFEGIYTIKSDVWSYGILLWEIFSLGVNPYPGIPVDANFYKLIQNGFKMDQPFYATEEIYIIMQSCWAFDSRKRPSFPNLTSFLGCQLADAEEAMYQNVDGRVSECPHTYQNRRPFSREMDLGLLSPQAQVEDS
# [4] = target: T1, Mitogen-activated protein kinase; ERK1/ERK2 (Homo sapiens); experiment: Reduction of ERK1/2 activation in human MDA-MB-435 cells at 20 uM after 1 hr by Western blot analysis; type: cell-based
# [5] = target: Vascular endothelial growth factor receptor 2 (Homo sapiens, UniProt P35968)
# Chain of Vascular endothelial growth factor receptor 2 (P35968 whole entry): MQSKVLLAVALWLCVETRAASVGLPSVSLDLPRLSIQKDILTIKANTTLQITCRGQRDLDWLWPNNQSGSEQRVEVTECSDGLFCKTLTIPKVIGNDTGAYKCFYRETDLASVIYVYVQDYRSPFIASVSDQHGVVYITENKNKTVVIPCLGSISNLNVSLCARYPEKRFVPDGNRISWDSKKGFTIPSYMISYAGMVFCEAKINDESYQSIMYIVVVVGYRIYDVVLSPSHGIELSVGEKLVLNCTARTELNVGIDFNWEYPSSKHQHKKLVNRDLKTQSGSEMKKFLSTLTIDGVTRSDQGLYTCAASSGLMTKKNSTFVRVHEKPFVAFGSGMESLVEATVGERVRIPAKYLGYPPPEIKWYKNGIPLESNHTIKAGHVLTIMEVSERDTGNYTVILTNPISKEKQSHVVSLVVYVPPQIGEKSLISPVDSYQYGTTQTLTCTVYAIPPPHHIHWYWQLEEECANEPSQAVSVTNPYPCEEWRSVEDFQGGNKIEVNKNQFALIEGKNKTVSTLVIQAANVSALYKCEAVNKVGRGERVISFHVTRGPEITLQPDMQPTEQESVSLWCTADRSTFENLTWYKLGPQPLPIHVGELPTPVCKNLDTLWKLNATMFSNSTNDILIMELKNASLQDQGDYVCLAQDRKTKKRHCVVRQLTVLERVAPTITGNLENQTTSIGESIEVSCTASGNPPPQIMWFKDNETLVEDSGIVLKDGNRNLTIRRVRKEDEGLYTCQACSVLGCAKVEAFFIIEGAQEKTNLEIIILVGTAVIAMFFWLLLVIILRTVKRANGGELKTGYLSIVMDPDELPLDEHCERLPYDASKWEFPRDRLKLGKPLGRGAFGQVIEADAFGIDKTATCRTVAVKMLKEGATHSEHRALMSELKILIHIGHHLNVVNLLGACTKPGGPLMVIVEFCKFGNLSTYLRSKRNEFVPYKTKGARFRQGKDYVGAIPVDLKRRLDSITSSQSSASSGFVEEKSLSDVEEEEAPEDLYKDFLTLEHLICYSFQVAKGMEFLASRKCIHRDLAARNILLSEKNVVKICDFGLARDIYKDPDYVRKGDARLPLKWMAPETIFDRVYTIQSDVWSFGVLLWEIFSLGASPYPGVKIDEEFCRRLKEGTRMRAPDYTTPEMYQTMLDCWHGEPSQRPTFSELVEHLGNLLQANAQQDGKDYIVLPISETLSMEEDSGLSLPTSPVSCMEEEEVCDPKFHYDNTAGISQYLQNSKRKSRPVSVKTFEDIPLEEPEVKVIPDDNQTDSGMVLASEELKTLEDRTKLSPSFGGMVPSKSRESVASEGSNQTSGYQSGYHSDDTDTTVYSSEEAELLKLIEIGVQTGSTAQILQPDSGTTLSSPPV
# Dihydrofolate reductase = target: T3, Dihydrofolate reductase (Homo sapiens, UniProt P00374); experiment: Inhibition of human DHFR
# T3 sequence (P00374 whole entry): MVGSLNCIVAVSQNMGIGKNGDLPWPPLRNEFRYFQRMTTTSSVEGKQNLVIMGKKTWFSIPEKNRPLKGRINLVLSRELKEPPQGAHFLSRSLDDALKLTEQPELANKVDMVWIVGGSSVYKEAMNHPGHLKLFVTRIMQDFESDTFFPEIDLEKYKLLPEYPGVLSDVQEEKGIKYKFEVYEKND
# [6] = target: Epidermal growth factor receptor (Homo sapiens, UniProt P00533)
# [7] = target: T4, Dihydrofolate reductase (Homo sapiens) (UniProt P00374); experiment: Inhibition of human DHFR at IC50
# T4 sequence (whole entry): T3 sequence (P00374 whole entry)
# [8] = target: Platelet-derived growth factor receptor beta (Homo sapiens, UniProt P09619); experiment: Inhibition of PDGFRbeta in human SF539 cells by phosphotyrosine cell-based ELISA; set-up: species or system SF-539
# Chain of Platelet-derived growth factor receptor beta (P09619 whole entry): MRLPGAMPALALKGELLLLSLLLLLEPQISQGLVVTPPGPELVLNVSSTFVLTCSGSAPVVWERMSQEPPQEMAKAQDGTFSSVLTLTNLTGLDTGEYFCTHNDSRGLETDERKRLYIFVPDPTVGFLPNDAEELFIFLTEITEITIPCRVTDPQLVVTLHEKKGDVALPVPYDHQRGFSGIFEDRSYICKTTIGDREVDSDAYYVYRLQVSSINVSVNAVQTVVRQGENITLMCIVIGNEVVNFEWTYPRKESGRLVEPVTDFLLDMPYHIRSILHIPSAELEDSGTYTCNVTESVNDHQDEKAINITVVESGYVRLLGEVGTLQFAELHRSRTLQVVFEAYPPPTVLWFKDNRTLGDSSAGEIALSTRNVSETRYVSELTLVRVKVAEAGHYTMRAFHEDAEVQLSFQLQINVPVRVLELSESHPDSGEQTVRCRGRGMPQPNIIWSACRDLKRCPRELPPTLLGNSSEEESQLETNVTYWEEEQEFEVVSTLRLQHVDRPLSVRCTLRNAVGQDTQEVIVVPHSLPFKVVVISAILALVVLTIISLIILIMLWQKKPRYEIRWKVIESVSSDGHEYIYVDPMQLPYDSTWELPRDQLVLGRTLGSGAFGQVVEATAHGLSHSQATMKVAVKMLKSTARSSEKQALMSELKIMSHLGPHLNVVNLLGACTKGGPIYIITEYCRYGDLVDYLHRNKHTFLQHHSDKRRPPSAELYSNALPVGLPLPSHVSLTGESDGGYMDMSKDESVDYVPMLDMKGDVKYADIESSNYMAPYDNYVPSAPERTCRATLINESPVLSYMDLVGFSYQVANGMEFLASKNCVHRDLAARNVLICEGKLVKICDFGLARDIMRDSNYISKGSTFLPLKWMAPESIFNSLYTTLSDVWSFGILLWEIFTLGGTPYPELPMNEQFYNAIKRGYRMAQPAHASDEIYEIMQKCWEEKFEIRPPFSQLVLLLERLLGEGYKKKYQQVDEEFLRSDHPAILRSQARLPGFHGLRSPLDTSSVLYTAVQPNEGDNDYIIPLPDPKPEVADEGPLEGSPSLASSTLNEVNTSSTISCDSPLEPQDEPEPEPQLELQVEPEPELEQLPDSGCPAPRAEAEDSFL
# [9] = target: T5, Dihydrofolate reductase (Escherichia coli) (UniProt P0ABQ4); experiment: Inhibition of Escherichia coli DHFR at IC50
# T5 sequence (whole entry): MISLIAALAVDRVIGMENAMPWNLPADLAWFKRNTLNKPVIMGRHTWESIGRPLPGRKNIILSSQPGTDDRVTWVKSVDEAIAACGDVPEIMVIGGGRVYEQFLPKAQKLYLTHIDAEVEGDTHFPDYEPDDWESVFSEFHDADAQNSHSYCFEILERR
SMILES,Activity [1],IC50 [2] [µM],IC50 [3] [µM],Activity [4],IC50 [5] [µM],IC50 (Dihydrofolate reductase) [µM],IC50 [6] [µM],inhibition [7] [%],IC50 [8] [µM],inhibition [9] [%]
Cc1ccc(Sc2cccc3[nH]c4nc(N)nc(N)c4c23)cc1,Active,160,39.6,Active,56.3,> 31,10.4,7,40.3,27
COc1ccc(C(=O)Nc2sc3c(c2C(N)=O)CCCC3)cc1OC,,,2.9,,,,,,,
Nc1nc(N)c2c(n1)[nH]c1cccc(Sc3ccccc3)c12,Active,118,41.2,Active,,> 33,,17,,35
